Data on five compounds can be found in paper PMC5923485 (Viruses, 2018).

Read-outs that look alike come from different tables or passages of the source.

A short description of data set [1]: in vitro. The settings on record: mouse.
The subject of data set [2] is S6 ribosomal protein (Ser235/236) phosphorylation and RVFV NP. Format: cell-based, mouse.
Data set [3] deals with RVFV MP12 ∆NSs-Luc. Nature of the data set: microbe, parasite or virus in culture. It counts as cell-based, Rift Valley fever virus. The settings on record: for inhibition at 100 µM: read-out: inhibition of RVFV MP12-luc.
The test system of data set [4] is H2.35 cells.
In data set [5] the test system is RVFV MP12. It counts as cell-based, Rift Valley fever virus.
Data set [6] concerns RVFV. The settings on record: mouse, in vivo; cited from earlier work.

On to `C[S+]([O-])c1ccc(-c2nc(-c3ccncc3)c(-c3ccc(F)cc3)[nH]2)cc1` (centres unmarked) [SB203580], for which the CC50 in data set [1] is > 100 µM. In data set [2], the “levels of RVFV NP” value is “minimal inhibition” and the “phosphorylation of S6 ribosomal protein (Ser 235/236)” value (from here on “phosphorylation”) was “minimal inhibition”. The inhibition at 100 µM in data set [3] (Rift Valley fever virus) was found to be 45%. The cell toxicity result in data set [4] was “no appreciable cell toxicity”. For the same compound, the “effect on RVFV titers” value in data set [5] is “minimal inhibition”.
In the case of `CO[C@H]1C[C@@H]2CC[C@@H](C)[C@@](O)(O2)C(=O)C(=O)N2CCCC[C@H]2C(=O)O[C@H]([C@H](C)C[C@@H]2CC[C@@H](O)[C@H](OC)C2)CC(=O)[C@H](C)/C=C(\C)[C@@H](O)[C@@H](OC)C(=O)[C@H](C)C[C@H](C)/C=C/C=C/C=C/1C` [Rapamycin], the CC50 in data set [1] is > 100 µM. Also, in data set [2], the “levels of RVFV NP” value is listed as “markedly decreased” and the “phosphorylation” value is reported as “markedly decreased”. This compound also gave an EC50 in data set [3] (Rift Valley fever virus, 18 h) of 18 µM. In data set [6], the “protection from RVFV induced pathogenesis” value was “protects mice”.
`CC(C)CCN1c2nc(Nc3cc(F)c(O)c(F)c3)ncc2N(C)C(=O)C1C` (centres unmarked) [BI-D1870]: in data set [2], the “levels of RVFV NP” value is “modestly increased” and the “phosphorylation” value is recorded as “no apparent change”. The “effect of increasing drug concentration on viral replication (luciferase)” value in data set [3] is “viral replication increased”. The “increase of infectious viral titer” value in data set [5] was “approximately 0.5 log”.
Regarding `CCc1cncnc1N1CCN(Cc2nc3ccc(C(F)(F)F)cc3[nH]2)CC1` [PF-4708671], in data set [2], the “levels of RVFV NP” value is “decreased” and the “phosphorylation” value was “decreased phosphorylation”. In addition, in data set [3] (read-out: EC50), the EC50 was determined as 17 µM. In data set [4], the CC50 was > 50 µM.
As to `O=C(NOC[C@H](O)CO)c1ccc(F)c(F)c1Nc1ccc(I)cc1F` [PD0325901], in data set [1], the CC50 is > 100 µM. In addition, in data set [2], the “levels of RVFV NP” value is recorded as “minimal inhibition” and the “phosphorylation” value is given as “minimal inhibition”. The EC50 in data set [3] (Rift Valley fever virus, 18 h) is > 50 µM. The inhibition at 100 µM in data set [3] (Rift Valley fever virus) worked out at 52%. Further, the decrease in viability in data set [4] (mouse) is ~ 20%. In data set [5], the “effect on RVFV titers” value was “minimal inhibition”.
